Assay results published in patent publication US20220323408A1, “COMPOSITION USED FOR COMBATING METABOLIC DISEASES AND USES OF COMPOSITION” (Institute of Zoology, Chinese Academy of Sciences, priority 2019, published 2022).

How the values were obtained:
[1] = tested on: HFD (high-fat diet)-induced obesity and insulin resistance; details: C57BL/6J mice; cited from earlier work
[2] = tested on: p38 and AMPK signaling pathways; test: Western blot of in vitro human primary skeletal muscle cells over 24 hours; type: cell-based; details: 100 mg/L A and/or 2 mg/L B, single agents vs DMSO control, weaker or slower than A+B
Description: In vitro human primary skeletal muscle cells were used in the test, the cells were divided into four groups, and each group had six time points. For the experimental group, 100 mg/L of therapeutic agent A and 2 mg/L of therapeutic agent B were administered; for the control group 1, 100 mg/L of therapeutic agent A was administered; for the control group 2, 2 mg/L of therapeutic agent B was administered; and for the control group 3, the same amount of DMSO solvent was used as a blank control. The experiment was conducted 24 hours in total.

diabetic DIO mice [3] = test: Body weight change in diabetic DIO mice, 4 weeks; type: in vivo; details: 30 mg/kg A alone or 5 mg/kg B alone per day
diabetic DIO mice [4] = test: Serum indicators of hyperlipidemia, fatty liver and nitrogen metabolism in diabetic DIO mice; type: in vivo; details: 4 weeks, 30 mg/kg A and/or 5 mg/kg B per day, vs blank control group 3
Description: Subsequent tests were performed on each group of mice that had completed the treatment of Example 8. Examples 9 and 10 detected two indicators related to obesity and hyperlipidemia: total cholesterol and LDL-cholesterol; Example 11 detected alanine aminotransferase (ALT), an indicator related to fatty liver disease; and Examples 12 and 13 detected two indicators related to nitrogen metabolism: albumin/globulin ratio and total protein.

[5] = tested on: diet-induced obesity (DIO) male mice; test: Body weight change in diet-induced obesity (DIO) mice, 10 days; type: in vivo; details: 30 mg/kg A alone or 5 mg/kg B alone per day i.p.
Description: In addition, the control group and the experimental group of the present invention all adopt intraperitoneal injections in the process. The injection volume starts at 4 μl/g of body weight and can be adjusted according to the dose, in which the therapeutic agent A in the experimental group (aspirin (trade name Aspirin) is used in the following examples) is diluted in PBS to a dose between 0.3 mg/kg and 120 mg/kg of body weight, the therapeutic agent B (trimetazidine (trade name Trimetazidine) is used in the following examples) is diluted in PBS to a dose between 0.05 mg/kg and 500 mg/kg of body weight. In the control group, the same amount of the therapeutic agent A or the same amount of the therapeutic agent B alone is usually used, or only the same amount of PBS solvent is used as a blank control. Twenty 6-week-old diet-induced obesity (Jackson Lab's Diet-Induced Obese, DIO) male mice with similar physical status were selected and then divided into four groups, and the number of mice in each group was 5. […] The body weight of each mouse was recorded daily.

[6] = LC-MS analysis of mouse serum 1 hour after administration; type: in vivo; details: mice of control group 1 (30 mg/kg A); serum 1 hour later; LC-MS vs blank control group 3
Description: Mice were grouped and administered according to the same method as in Example 8, except that serum samples from each group of mice were subjected to liquid phase mass spectrometry (LC-MS, Waters XBridge C18 column and Xevo G2-XS) analysis 1 hour later, and the most prominent small molecule markers were taken out, as shown in FIG. 51.

[7] = tested on: primary human skeletal muscle cells induced insulin resistance; test: Western blot of primary human skeletal muscle cells with induced insulin resistance, 7 days; type: cell-based; details: palmitic acid + TNFα 7 days, 100 mg/L A and/or 2 mg/L B on day 4, vs control group 3; for insulin sensitivity indicator phospho-Akt / insulin sensitivity indicator phospho-S6 / myosin heavy chain (MHC): single agents comparably weak
Description: In vitro human primary skeletal muscle cells were used in the experiment, the cells were divided into six groups: for control group 1, the same amount of DMSO solvent was administered for 7 days as a blank control; for control group 2, the same amount of bovine serum albumin (BSA) was administered for 7 days as a fat solvent control; for control group 3, palmitic acid (Pal) and TNFα were administered for 7 days as a high-fat and inflammation-induced insulin resistance control; for control group 4, palmitic acid (Pal) and TNFα were administered for 7 days and 100 mg/L of therapeutic agent A was administered on day 4; for control group 5, palmitic acid (Pal) and TNFα were administered for 7 days and 2 mg/L of therapeutic agent B was administered on day 4; for the experimental group, palmitic acid (Pal) and TNFα were administered for 7 days and 100 mg/L of therapeutic agent A and 2 mg/L of therapeutic agent B were administered on day 4; afterwards, protein Western blot analysis was performed on each group of samples, as shown in FIG. 47.

pancreatic beta cells = details: by reducing PGE2-mediated β-cell apoptosis; cited from earlier work
[8] = long-term administration (3 to 24 hours)
[9] = short-term administration (within 60 minutes)

Q: With `COc1ccc2c(c1)c(CC(=O)O)c(C)n2C(=O)c1ccc(Cl)cc1` [Indomethacin] as the compound, how does the “HFD (high-fat diet)-induced obesity” value [1] read?
A: The value was “prevent”.

Q: What about the HFD-induced insulin resistance [1] of the same compound?
A: Its HFD-induced insulin resistance is “prevent”.

Q: With `CC(=O)Oc1ccccc1C(=O)O` [therapeutic agent A, aspirin] as the compound, how does the PGC1a [2, 8] read?
A: The PGC1a was “could also down-regulate”.

Q: What about the phospho-ACC [2, 8] of the same compound?
A: The phospho-ACC was “could also down-regulate”.

Q: And the phospho-p38 [2, 8]?
A: Its phospho-p38 is “could also down-regulate”.

Q: What about the PGC1a [2, 9] of the same compound?
A: Its PGC1a is “could also up-regulate”.

Q: And the phospho-ACC [2, 9]?
A: The phospho-ACC was “could also up-regulate”.

Q: What about the phospho-AMPK [2, 9] of the same compound?
A: The phospho-AMPK was “could also up-regulate”.

Q: What about the phospho-p38 [2, 9] of the same compound?
A: Its phospho-p38 is “could also up-regulate”.

Q: And the “effect on the body weight” value (diabetic DIO mice [3])?
A: The value was “almost no obvious effect”.

Q: And the LDL-cholesterol (diabetic DIO mice [4])?
A: The LDL-cholesterol was “neither therapeutic agent A in control group 1 nor therapeutic agent B in control group 2 used alone was able to achieve significant therapeutic or restorative effects”.

Q: What about the “alanine aminotransferase (ALT)” value (diabetic DIO mice [4]) of the same compound?
A: The value was “neither therapeutic agent A in control group 1 nor therapeutic agent B in control group 2 used alone was able to achieve significant therapeutic or restorative effects”.

Q: What about the albumin/globulin ratio (diabetic DIO mice [4]) of the same compound?
A: The albumin/globulin ratio was “neither therapeutic agent A in control group 1 nor therapeutic agent B in control group 2 used alone was able to achieve significant therapeutic or restorative effects”.

Q: And the total cholesterol (diabetic DIO mice [4])?
A: The total cholesterol was “neither therapeutic agent A in control group 1 nor therapeutic agent B in control group 2 used alone was able to achieve significant therapeutic or restorative effects”.

Q: And the total protein (diabetic DIO mice [4])?
A: Its total protein is “neither therapeutic agent A in control group 1 nor therapeutic agent B in control group 2 used alone was able to achieve significant therapeutic or restorative effects”.

Q: And the “effect on the body weight” value [5]?
A: The value was “almost no significant effect”.

Q: And the “formation of salicylate derivatives in serum” value [6]?
A: Its value is “can effectively form a variety of salicylate derivatives in serum”.

Q: What about the “cellular senescence indicator H3K9me3” value [7] of the same compound?
A: The value was “can down-regulate”.

Q: What about the “insulin sensitivity indicator phospho-Akt” value [7] of the same compound?
A: The value was “can also up-regulate”.

Q: What about the “insulin sensitivity indicator phospho-S6” value [7] of the same compound?
A: Its value is “can also up-regulate”.

Q: And the “myosin heavy chain (MHC)” value [7]?
A: The value was “can also up-regulate”.

Q: What does the source list for `COc1ccc(CN2CCNCC2)c(OC)c1OC` [therapeutic agent B, trimetazidine]?
A: PGC1a [2, 8]: could also down-regulate; phospho-ACC [2, 8]: could also down-regulate; phospho-p38 [2, 8]: could also down-regulate; PGC1a [2, 9]: could also up-regulate; phospho-ACC [2, 9]: could also up-regulate; phospho-AMPK [2, 9]: could also up-regulate; phospho-p38 [2, 9]: could also up-regulate; effect on the body weight (diabetic DIO mice [3]): almost no obvious effect; LDL-cholesterol (diabetic DIO mice [4]): neither therapeutic agent A in control group 1 nor therapeutic agent B in control group 2 used alone was able to achieve significant therapeutic or restorative effects; alanine aminotransferase (ALT) (diabetic DIO mice [4]): neither therapeutic agent A in control group 1 nor therapeutic agent B in control group 2 used alone was able to achieve significant therapeutic or restorative effects; albumin/globulin ratio (diabetic DIO mice [4]): neither therapeutic agent A in control group 1 nor therapeutic agent B in control group 2 used alone was able to achieve significant therapeutic or restorative effects; total cholesterol (diabetic DIO mice [4]): neither therapeutic agent A in control group 1 nor therapeutic agent B in control group 2 used alone was able to achieve significant therapeutic or restorative effects; total protein (diabetic DIO mice [4]): neither therapeutic agent A in control group 1 nor therapeutic agent B in control group 2 used alone was able to achieve significant therapeutic or restorative effects; effect on the body weight [5]: almost no significant effect; cellular senescence indicator H3K9me3 [7]: cannot achieve the same effect; insulin sensitivity indicator phospho-Akt [7]: can also up-regulate; insulin sensitivity indicator phospho-S6 [7]: can also up-regulate; myosin heavy chain (MHC) [7]: can also up-regulate

Q: With `CS(=O)(=O)Nc1ccc([N+](=O)[O-])cc1OC1CCCCC1` [NS-398] as the compound, how does the β-cell dysfunction (pancreatic beta cells) read?
A: The β-cell dysfunction was “reverse”.
